From patent publication EP1095657A2, “Compositions for the regulation of cytokine activity” (priority 1992, dated 1994)
Marks after values point to notes of the source that are not given here.

Experiments:
[1] = tested on: LPS-induced inflammation of the cornea; experiment: LPS-induced inflammation of the rat cornea; type: in vivo, Lewis rats
Description: LPS-induced inflammation of the cornea is TNF dependent, as shown by the work of Vanderhagen, C. and co-workers in the Netherlands, "Kinetics of Intraocular TNF and IL-6 in Endotoxin-Induced Uveitis in the Rat," submitted for publication. Using a 30-gauge needle, LPS (5 ng) was injected into the cornea of Lewis rats. After one day, separate groups of rats, 2 to a group (or 4 eyes to a group), were then injected subcutaneously with phosphate-buffered saline (0.05 ml) or H-1020 (at a dose of either 50 ng/rat or 200 ng/rat). The effects, if any, were scored as follows:
in which the sum of the points is used as the total score.

ELAM-1 = experiment: TNF-α-induced expression of adhesion molecules by endothelial cells (ELISA); conditions: for Recombinant human TNFα-induced adhesion molecules (O.D 492): 1 h pretreatment of EC, TNFα alone 1.2±0.1
[2] = tested on: adjuvant arthritis in Lewis rats; experiment: Adjuvant arthritis (AA) in rats; type: in vivo; conditions: s.c. weekly from 1 day before induction; day 24; dose not given
ICAM-1 = experiment: TNF-α-induced expression of adhesion molecules by endothelial cells (ELISA); conditions: 1 h pretreatment of EC, TNFα alone 2.2±0.2
[3] = tested on: experimental DTH reaction in mice; experiment: In vivo bioassay of inhibition of experimental DTH reactivity (oxazolone ear swelling); set-up: species or system mice (BALB/c or CD1); conditions: for "R" value: inhibitory, 0 = no effect; for DTH Response: at the dose giving Inhmax; for Dose: dose giving Inhmax
Description: Groups of inbred BALB/c (Jackson Laboratories, Bar Harbor, ME) or of outbred CD1 (Weizmann Institute Animal Breeding Center, Rehovot, Israel) mice are sensitized on the shaved abdominal skin with 100 µl of 2% oxazolone (OX) in acetone/olive oil (4/1, v/v) applied topically. DTH sensitivity is elicited 5 days later as follows: mice are challenged with 20 µl of 0.5% OX (10 µl administered topically to each side of the ear) in acetone/olive oil. A constant area of the ear is measured immediately before challenge and 24 and 48 h later with a Mitutoyo engineer's micrometer. The individual measuring ear swelling is blinded to the identity of the groups of mice. The increment (△) of ear swelling is expressed as the mean in units of 10^-2 mm or 10^-4 inch (+SE) depending on the micrometer that is used. Percent inhibition is calculated as follows: %Inhibition= 1-((Treated-negative control)/(positive control-negative control)) [formula]
Mice are treated with LMWH as in Example 5.1, injected the day before primary sensitization to OX. On the fifth day after sensitization to OX, the mice are challenged to induce a DTH reaction, as described above.
The positive control is the DTH reaction elicited in immunized mice in the absence of treatment with LMWH. The negative control is the background swelling produced by the antigen in naive (non-immunized) mice.
BALB/c mice (at least 5 mice per group) were sensitized on the shaved abdomen with 3% 4-ethoxymethylene-2-phenyl oxazolone (OX; BDH Chemicals, GB) in acetone/olive oil applied topically. DTH sensitivity was elicited 5 days later as follows. Mice were challenged with 0.5% OX in acetone/olive oil. The ear was measured immediately before challenge and 24 h later with Mitutoyo engineer's micrometer (Japan). The individual measuring the swelling of the ear was blinded to the identity of the groups of mice. To interfere with DTH response, the low molecular weight immuno-regulatory fractions, diluted in PBS, were administrated subcutaneously into the back of the treated mice at the indicated time schedules and concentrations. Treated mice were inspected during and after (>2 months) the treatment and no major side-effects were observed clinically.
In particular, CD1 mice (available from the Weizmann Institute Animal Breeding Center, Rehovot, Israel), 4-12 mice per group, were treated as described in Section 5.2 or 6.8.

[4] = tested on: secretion of active TNF-α by activated human CD4+ T cells; experiment: Bioassay of TNF-α activity using human CD4+ T cells derived from PBLs (human PBL bioassay); conditions: concentration that gave the Inhmax or Augmax of the same line
[5] = tested on: experimental DTH reaction in mice; experiment: In vivo bioassay of inhibition of experimental DTH reactivity (oxazolone ear swelling); set-up: species or system mice (BALB/c or CD1); conditions: inhibitory; administered orally

## O=C(O)C1=C[C@H](O)[C@@H](O)[C@H](O[C@H]2[C@H](O)[C@@H](NS(=O)(=O)O)C(O)O[C@@H]2COS(=O)(=O)O)O1 (stereo partly drawn) [H-1020, 4-deoxy-4-en-iduronic acid-(α-1,4)-2-deoxy-2-N-sulfate-6-O-sulfateglucosamine]
[1]; 50 ng/rat s.c. one day after LPS
  effect on the LPS-induced inflammation score, in words: effective to suppress the effects of the local LPS-induced inflammation
[1]; 200 ng/rat s.c. one day after LPS
  effect on the LPS-induced inflammation score, in words: failed to provide a significant effect
ELAM-1; 50 pg/ml, no TNFα 0.12±0.01
  Recombinant human TNFα-induced adhesion molecules (O.D 492): 0.7±0.05 O.D 492
ELAM-1; 100 pg/ml
  Recombinant human TNFα-induced adhesion molecules (O.D 492): 0.9±0.03 O.D 492
ELAM-1; ELAM-1 and ICAM-1 not told apart in the sentence
  inhibition of the up regulation of EC expression of adhesion molecules induced by TNF-α: up to 50%
[2]
  inhibition of the development of AA relative to control: about 30%
ICAM-1; 50 pg/ml, no TNFα 0.18±0.01
  Recombinant human TNFα-induced adhesion molecules (O.D 492): 1.2±0.1 O.D 492
ICAM-1; 100 pg/ml
  Recombinant human TNFα-induced adhesion molecules (O.D 492): 1.5±0.07 O.D 492
[3]; CD1 mice, s.c.
  Inhmax: 66%
  "R" value: 1.65 x 10^5 % x (μg/gm)^-1
[3]; CD1 mice, s.c., at that dose, value in parentheses in the cell taken as positive control, not reported
  DTH: 6.7 ± 1.1 (19.6 ± 1.2) 10^-2 mm
[3]; administered orally
  DTH Response: 5.9 ± 0.9 10^-2mm
  Dose: 0.128^a µg/gm mouse
[3]; subcutaneous
  DTH Response: 4.7 ± 0.7 10^-2mm
  Dose: 0.0005 µg/gm mouse
[3]; maximum % inhibition of DTH divided by the dose giving it, s.c.
  "R" value: 146,000 % x (µg/gm)^-1
[3]; maximum inhibition of DTH, administered orally
  Inhmax: 68%
[3]; maximum inhibition of DTH, subcutaneous
  Inhmax: 73%
[4]
  conc: 1 pg/mL
[5]
  "R" value: 531 % x (µg/gm)^-1
